Assay: Incorporation of fat-soluble drug into white turbid aggregate containing PMEA
Details: diluted in PBS, 37° C., fluorescence microscopy after 3 days
Description: The dialysis was carried out for 3 days while changing the purified water until the coloring of the external solvent by the elution of DOX was sufficiently removed.
In addition, the white turbid aggregate was diluted in PBS, allowed to stand in an incubator at 37° C., and then the doxorubicin content was confirmed by fluorescence microscopy (after 3 days).

## COc1cccc2c1C(=O)c1c(O)c3c(c(O)c1C2=O)C[C@@](O)(C(=O)CO)C[C@@H]3O[C@H]1C[C@H](N)[C@H](O)[C@H](C)O1 [doxorubicin]
  doxorubicin content of the aggregate after storage: confirmed
